Data on eleven compounds can be found in ChEMBL document CHEMBL1201862, “PubChem BioAssay data set” (2004).

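Cells were grown in 96-well plates and exposed to each compound for 48 hours at five concentrations; endpoints were interpolated linearly between bracketing concentrations, or set to the highest concentration if not reached. GI50 = concentration required for 50% inhibition of growth.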 Active and inactive are the calls of the source. No stated cut-off is given here; in the data, active = GI50 up to about 1.1 µM and inactive = higher. Where a SMILES comes first, the peptide text is derived from it. Non-standard residues stand in square brackets, D forms with d. Residues, ends and D or L forms follow the SMILES beside them. The star is where a group is joined. *: point of attachment. Benzoyl(4-OMe) = COc1ccc(C(=O)*)cc1; 2Thi = N[CH](Cc1cccs1)C(=O)O; Cbz = O=C(OCc1ccccc1)*

Common to all, as to test: NCI tumour cell line growth inhibition, 48 h
Assay [1] concerns CCRF-CEM.
Assay [2] has as its system COLO 205.
Assay [3] relates to HCT-15.
In assay [4] the test system is HOP-62.
Assay [5] has as its system Hs-578T.
For assay [6], the system named is IGROV-1.
Assay [7] concerns K562.
Assay [8] deals with LOX IMVI.
Assay [9] deals with MDA-MB-435.
Assay [10] has as its system MDA-N.
Assay [11] relates to NCI-H226.
Assay [12] deals with OVCAR-5.
Assay [13] concerns OVCAR-8.
The subject of assay [14] is SK-MEL-5.
In assay [15] the test system is SW-620.
The test system of assay [16] is UO-31.
In assay [17] the test system is HOP-92.
Assay [18] deals with M14.
The subject of assay [19] is SK-MEL-2.
The subject of assay [20] is SK-OV-3.

Consider `CCCc1cc(=O)oc2c3c(c4c(c12)OC(C)(C)C=C4)O[C@@H](C)[C@H](C)C3=O`, for which the GI50 is 15.1 µM (inactive) in assay [1]; 18.6 µM (inactive) in assay [2]; 15 µM in [3]; 18.5 µM (inactive) in assay [4]; 15.3 µM (inactive) in [5]; 12.9 µM (inactive) in assay [6]. Further, the GI50 was 6.46 µM (inactive) in assay [7]; 18.7 µM (inactive) in [8]; 21.9 µM (inactive) in assay [9]; 17.3 µM (inactive) in [10]; 18.2 µM (inactive) in [11]; 17.9 µM (inactive) in assay [12]. Moreover, the GI50 is 17.1 µM (inactive) in assay [13], 15.8 µM (inactive) in assay [14], 13.4 µM (inactive) in assay [15] and 15.8 µM (inactive) in assay [16].

On to `c1ccc2c(c1)CC1COc3ccccc3C1O2` (stereo not given), for which the GI50 was 73.6 µM (inactive) in assay [1]; > 100 µM (inactive) in assay [2]; 40.2 µM in assay [3]; 56.6 µM (inactive) in [4]; 47 µM (inactive) in [17]; 86.1 µM (inactive) in assay [6]. The GI50 in assay [7] was > 100 µM (inactive); in assay [8], 58.7 µM (inactive); in [18], > 100 µM (inactive); in assay [9] it was 47.4 µM (inactive); in [10], 38 µM (inactive); in [11] it was > 100 µM (inactive). For the same compound, the GI50 in assay [12] was > 100 µM (inactive); in assay [13], > 100 µM (inactive); in assay [19], 44.6 µM (inactive); in [14] it was 17.4 µM (inactive); in assay [20] it was > 100 µM (inactive); in assay [15], 46.8 µM (inactive). In addition, the GI50 in assay [16] is 51.1 µM (inactive).

Turning to `O=c1ccn(C2OC(CO)C(O)C2F)c(=O)n1Cc1ccccc1` (stereo not given), the GI50 in assay [1] is > 100 µM (inactive); in assay [2], > 100 µM (inactive); in assay [3] it was over 100 µM; in [4], > 100 µM (inactive); in assay [5] it was > 100 µM (inactive); in assay [6], > 100 µM (inactive). Moreover, the GI50 in [7], in assay [8], in [9], in [10], in [11] and in [12] was > 100 µM (inactive) throughout. Moreover, the GI50 in [13], in [14], in [15] and in [16] was > 100 µM (inactive) in each case.

With `CC(=O)OC12c3ccccc3C(c3ccccc31)C1C(=O)N(c3ccccc3O)C(=O)C12` (stereo not given), the GI50 in assay [1] is 57.3 µM (inactive); in assay [2] it was > 100 µM (inactive); in assay [3] it was over 100 µM; in assay [4], 96.4 µM (inactive); in assay [5] it was > 100 µM (inactive); in assay [6] it was > 100 µM (inactive). In addition, the GI50 in assay [7], in assay [8], in assay [18], in [10], in [11] and in assay [12] was > 100 µM (inactive) in each case. Moreover, the GI50 in [13] is > 100 µM (inactive); in assay [14], > 100 µM (inactive); in assay [20] it was > 100 µM (inactive); in [15] it was > 100 µM (inactive); in assay [16], 50.4 µM (inactive).

As to `COc1ccc(C2C3=C(COC3=O)Oc3cc4c(cc32)OCO4)c(OC)c1` (stereo not given), the GI50 was 11.1 µM (inactive) in assay [1]; 7 µM (inactive) in assay [2]; 5.73 µM in assay [3]; 30.3 µM (inactive) in assay [4]; 13.6 µM (inactive) in assay [5]; 12.9 µM (inactive) in assay [6]. Moreover, the GI50 in assay [7] was 4.3 µM (inactive); in assay [8] it was 4.31 µM (inactive); in [18], 15 µM (inactive); in assay [9], 2.28 µM (inactive); in [10], 2.09 µM (inactive); in assay [11], 31.8 µM (inactive). Moreover, the GI50 in assay [12] was 43.5 µM (inactive); in [13], 44.4 µM (inactive); in [14] it was 10.7 µM (inactive); in [20], 17.3 µM (inactive); in [15], 5.81 µM (inactive); in [16], 16.3 µM (inactive).

On to `CC(C)(C)c1cc(/C=C/C(=O)CC(=O)/C=C/c2cc(C(C)(C)C)c(O)c(C(C)(C)C)c2)cc(C(C)(C)C)c1O`, for which the GI50 in [1] is > 50 µM (inactive); in assay [2], > 50 µM (inactive); in assay [3] it was over 50 µM; in assay [4], > 50 µM (inactive); in [5] it was > 50 µM (inactive); in [6], > 50 µM (inactive). Besides, the GI50 in assay [8], in assay [18], in [9], in [10], in assay [11] and in [12] was > 50 µM (inactive) throughout. Besides, the GI50 in [13], in assay [19], in assay [14], in assay [20], in assay [15] and in assay [16] was > 50 µM (inactive) throughout.

Regarding `CSc1nc(Nc2ccccc2Cl)c2c(N)nn(C)c2n1`, the GI50 is > 100 µM (inactive) in assay [1]; > 100 µM (inactive) in [2]; over 100 µM in assay [3]; 27 µM (inactive) in [4]; 17 µM (inactive) in assay [5]; > 100 µM (inactive) in assay [6]. The GI50 in assay [7] was > 100 µM (inactive); in [8], 16 µM (inactive); in assay [18], > 100 µM (inactive); in [9], > 100 µM (inactive); in assay [10] it was > 100 µM (inactive); in assay [11], > 100 µM (inactive). In addition, the GI50 in [12] is > 100 µM (inactive); in [13] it was 16.9 µM (inactive); in assay [19], > 100 µM (inactive); in [14], > 100 µM (inactive); in [20], > 100 µM (inactive); in assay [15] it was > 100 µM (inactive). Also, the GI50 in [16] is > 100 µM (inactive).

For `N#CC(=S)Nc1ccc(Cl)c(Cl)c1`, the GI50 in assay [1] is 10 µM (inactive); in [2] it was 20.6 µM (inactive); in assay [3] it was 27.2 µM; in assay [4] it was 44 µM (inactive); in assay [17], 3.1 µM (inactive); in assay [6] it was 13.1 µM (inactive). Moreover, the GI50 in assay [7] is 11.7 µM (inactive); in [8] it was 26.6 µM (inactive); in assay [18] it was 24.6 µM (inactive); in assay [9], 27 µM (inactive); in assay [10], 32.7 µM (inactive); in assay [11] it was 22.4 µM (inactive). For the same compound, the GI50 in assay [12] was 16.4 µM (inactive); in [13], 25.4 µM (inactive); in [19], 27.7 µM (inactive); in assay [14] it was 22.2 µM (inactive); in assay [20] it was 20 µM (inactive); in [15] it was 27 µM (inactive).

As to `NC1=NC(=O)[C@H](CSCc2ccccc2)N1C(=O)OCc1ccccc1`, the GI50 is > 100 µM (inactive) in assay [2]; over 100 µM in assay [3]; > 100 µM (inactive) in [4]; > 100 µM (inactive) in assay [5]; > 100 µM (inactive) in assay [6]; > 100 µM (inactive) in [7]. For the same compound, the GI50 in [8], in assay [9], in assay [10], in assay [11], in assay [12] and in assay [13] was > 100 µM (inactive) throughout. Besides, the GI50 in [19], in assay [14], in [15] and in assay [16] was > 100 µM (inactive) each time.

Take `CCOC(=O)CCC(NC(=O)CNC(=O)CNC(=O)C(CCC(=O)OCC)NC(=O)C(CCC(=O)OCC)NC(=O)C(CCC(=O)OCC)NC(=O)OCc1ccccc1)C(=O)NC(CCC(=O)OCC)C(=O)NC(CCC(=O)OCC)C(=O)OCC` (stereo not given) (Cbz-E(OEt)E(OEt)E(OEt)GGE(OEt)E(OEt)E(OEt)-OEt; configuration not given here): the GI50 is > 75 µM (inactive) in assay [1]; > 75 µM (inactive) in assay [2]; over 75 µM in [3]; > 75 µM (inactive) in assay [5]; > 75 µM (inactive) in assay [6]; > 75 µM (inactive) in assay [8]. For the same compound, the GI50 in [18], in assay [9], in [10], in [12], in [13] and in [19] was > 75 µM (inactive) each time. The GI50 in assay [14], in assay [20], in [15] and in assay [16] was > 75 µM (inactive) each time.

For `CCC(C)C(NC(=O)C(Cc1cccs1)NC(=O)C(CC(C)C)NC(=O)C(CC(C)C)NC(=O)C(CCCCN)NC(=O)C(CCCNC(=N)N)NC(=O)c1ccc(OC)cc1)C(=O)NC(CC(C)C)C(N)=O` (stereo not given) ({Benzoyl(4-OMe)}-RKLL[2Thi]IL-NH2; configuration not given here), the GI50 in assay [1] was 78.2 µM (inactive); in [2] it was > 100 µM (inactive); in assay [3] it was over 100 µM; in [4], > 100 µM (inactive); in assay [5], > 100 µM (inactive); in assay [7], > 100 µM (inactive). Besides, the GI50 in assay [8], in assay [18], in assay [9], in assay [10], in [11] and in assay [12] was > 100 µM (inactive) throughout. The GI50 in assay [13], in assay [14], in assay [20], in [15] and in [16] was > 100 µM (inactive) each time.
